Laboratory results taken from ChEMBL document CHEMBL1135074, “Two neolignans from Perilla frutescens and their inhibition of nitric oxide synthase and tumor necrosis factor-alpha expression in murine macrophage cell line RAW 264.7” (Bioorg Med Chem Lett, 2002).

Tests used:
RAW = assay: Tested for the inhibition of nitric oxide syntheses in murine macrophage cell line RAW 264.7 at a concentration of 30 uM; assay type: cell-based
[1] = Tested for the inhibition of nitric oxide syntheses in murine macrophage cell line RAW 264.7; assay type: cell-based
L929 = assay: Relative cytotoxicity measured as inhibition of LPS induced TNF alpha production in L929 cells at 10 uM; assay type: functional, Mus musculus; parameters: scale not given: the % may be the effect or the level left
RAW264.7 = assay: Tested for the inhibition of NO production in RAW 264.7 cells; assay type: functional, Mus musculus

Row | Structure (SMILES) | inhibition (RAW) [%] | IC50 [1] [µM] | Activity (L929) [%] | Inhibition (RAW264.7) [%]
1 | COc1cc(OC)c([C@@H]2[C@@H](C)[C@H](C)[C@H]2c2cc(OC)c(OC)cc2OC)cc1OC | 17 | 5.9 | 26 | 
2 | N=C(N)NN [PIMAGEDINE] |  |  |  | 79
3 | COc1cc(OC)c([C@@H]2[C@H](C)[C@@H](C)[C@H]2c2cc(OC)c(OC)cc2OC)cc1OC [MAGNOSALIN] |  | 53.5 | 84 | 
